According to ChEMBL document CHEMBL5042473 (J Med Chem, 2022):

Columns and labels:
[1] = Drug concentration in mouse C57BL/6 brain at 0.4 mg/kg,po measured at 2 hrs by LC-MS/MS analysis; format: ADME, organism-based; settings: C57BL/6, mouse, read-out: Drug uptake
Splenocyte [2] = assay: Antiinflammatory activity against LPS-stimulated Balb/c mouse splenocytes assessed as reduction in IL-6 at 1 nM incubated for 24 hrs by ELISA based method; format: functional; set-up: scale not given: the % may be the effect or the level left
Splenocyte [3] = assay: Antiinflammatory activity against LPS-stimulated Balb/c mouse splenocytes assessed as reduction in IL-6 at 10 nM incubated for 24 hrs by ELISA based method; format: functional; set-up: scale not given: the % may be the effect or the level left
CYP2D6 = CYP2D6 (Homo sapiens, UniProt P10635); assay: Inhibition of human recombinant CYP2D6 at 10 uM relative to control; format: ADME
[4] = molecular target: Mitogen-activated protein kinase 14 (Homo sapiens, UniProt Q16539); assay: Inhibition of human p38 MAPK alpha incubated for 1 hr by photometric method
[5] = Drug concentration in mouse C57BL/6 liver at 0.4 mg/kg,po measured at 4 hrs by LC-MS/MS analysis; format: ADME, organism-based; settings: C57BL/6, mouse, read-out: Drug uptake
CYP2C9 = CYP2C9 (Homo sapiens, UniProt P11712); assay: Inhibition of human recombinant CYP2C9 at 10 uM relative to control; format: ADME
[6] = Drug concentration in mouse C57BL/6 heart at 0.4 mg/kg,po measured at 4 hrs by LC-MS/MS analysis; format: ADME, organism-based; settings: C57BL/6, mouse, read-out: Drug uptake
[7] = Ratio of drug concentration in mouse C57BL/6 brain to plasma at 0.4 mg/kg, po measured at 2 hrs by LC-MS/MS analysis; format: ADME, organism-based; settings: C57BL/6, mouse, brain and plasma
[8] = Drug concentration in mouse C57BL/6 brain at 0.4 mg/kg,po measured at 4 hrs by LC-MS/MS analysis; format: ADME, organism-based; settings: C57BL/6, mouse, read-out: Drug uptake
CYP3A4 = CYP3A4 (Homo sapiens, UniProt P08684); assay: Inhibition of human recombinant CYP3A4 at 10 uM relative to control; format: ADME
Splenocyte [9] = assay: Cytotoxicity against Balb/c mouse splenocytes assessed as metabolic activity at 1 to 10 nM incubated for 24 hrs by MTT assay; format: toxicity, cell-based; settings: 0.01 µM, dose 1-10 nM
[10] = Metabolic stability in human liver microsomes assessed as parent compound remaining incubated for 120 mins; format: ADME, Microsome; settings: read-out: Stability
Blood [11] = assay: Antiinflammatory activity against LPS-stimulated C57BL/6 mouse whole blood assessed as reduction in TNF-alpha at 1 nM incubated for 24 hrs by ELISA based method; format: functional; set-up: scale not given: the % may be the effect or the level left
CYP1A2 = molecular target: T1, CYP1A2 (Homo sapiens, UniProt P05177); assay: Inhibition of human recombinant CYP1A2 at 10 uM relative to control; format: ADME
T1 sequence (P05177 whole entry): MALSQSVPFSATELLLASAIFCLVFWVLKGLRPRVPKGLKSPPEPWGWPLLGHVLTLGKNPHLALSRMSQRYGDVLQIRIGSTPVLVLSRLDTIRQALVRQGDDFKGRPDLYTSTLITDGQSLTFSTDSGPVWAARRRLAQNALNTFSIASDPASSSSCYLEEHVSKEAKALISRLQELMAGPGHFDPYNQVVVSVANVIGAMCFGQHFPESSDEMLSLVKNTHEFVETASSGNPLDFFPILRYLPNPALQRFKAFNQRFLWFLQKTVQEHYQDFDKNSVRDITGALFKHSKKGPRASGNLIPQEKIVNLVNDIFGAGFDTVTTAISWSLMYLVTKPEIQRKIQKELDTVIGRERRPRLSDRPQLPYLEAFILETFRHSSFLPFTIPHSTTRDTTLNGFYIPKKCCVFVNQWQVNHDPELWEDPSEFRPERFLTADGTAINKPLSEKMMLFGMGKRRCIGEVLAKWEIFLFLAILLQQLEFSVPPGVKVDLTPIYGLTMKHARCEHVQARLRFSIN

Splenocyte [12] = assay: Antiinflammatory activity against LPS-stimulated Balb/c mouse splenocytes assessed as reduction in IL-6 at 100 nM incubated for 24 hrs by ELISA based method; format: functional; set-up: scale not given: the % may be the effect or the level left
CYP2C19 = CYP2C19 (Homo sapiens, UniProt P33261); assay: Inhibition of human recombinant CYP2C19 at 10 uM relative to control; format: ADME
[13] = Cytotoxicity against Balb/c mouse splenocytes assessed as metabolic activity at 100 nM incubated for 24 hrs by MTT assay relative to LPS-stimulated splenocytes; format: toxicity, cell-based, Splenocyte; settings: read-out: Activity
[14] = Drug concentration in mouse C57BL/6 kidney at 0.4 mg/kg,po measured at 4 hrs by LC-MS/MS analysis; format: ADME, organism-based; settings: C57BL/6, mouse, read-out: Drug uptake
hERG = hERG (Homo sapiens, UniProt Q12809); assay: Inhibition of hERG at 10 uM by fluorimetric analysis relative to control; format: toxicity
[15] = Ratio of drug concentration in RjOrl:Swiss (CD-1) mouse brain to plasma at 10mg/kg, iv administered measured after 2 hrs by LC-MS/MS analysis; format: ADME, organism-based; settings: brain and plasma, read-out: BPR
[16] = Drug uptake in RjOrl:Swiss (CD-1) mouse brain at 10 mg/kg, iv administered measured after 2 hrs by LC-MS/MS analysis; format: ADME, organism-based; settings: read-out: Ct
[17] = Drug concentration in rat plasma at 6 mg/kg, iv measured after 24 hrs by LC/MS/MS analysis
[18] = Drug concentration in rat brain at 6 mg/kg, iv measured after 24 hrs by LC/MS/MS analysis; settings: in vivo
[19] = Drug concentration in mouse C57BL/6 brain at 0.4 mg/kg,iv measured at 2 hrs by LC-MS/MS analysis; format: ADME, organism-based; settings: C57BL/6, mouse, read-out: Drug uptake
Blood [20] = assay: Reduction in LPS-stimulated TNF-alpha release in human whole blood incubated for 15 mins by ELISA based method; settings: 0.25 h
Blood [21] = assay: Antiinflammatory activity against LPS-stimulated C57BL/6 mouse whole blood assessed as reduction in IL-6 incubated for 24 hrs by ELISA based method; format: functional; set-up: scale not given: the % may be the effect or the level left; settings: dose 1-100 nM, at 1 to 100 nM
Blood [22] = assay: Antiinflammatory activity against LPS-stimulated C57BL/6 mouse whole blood assessed as reduction in TNF-alpha at 10 nM incubated for 24 hrs by ELISA based method; format: functional; settings: C57BL/6, Blood

CYP2C19, sequence (P33261 whole entry): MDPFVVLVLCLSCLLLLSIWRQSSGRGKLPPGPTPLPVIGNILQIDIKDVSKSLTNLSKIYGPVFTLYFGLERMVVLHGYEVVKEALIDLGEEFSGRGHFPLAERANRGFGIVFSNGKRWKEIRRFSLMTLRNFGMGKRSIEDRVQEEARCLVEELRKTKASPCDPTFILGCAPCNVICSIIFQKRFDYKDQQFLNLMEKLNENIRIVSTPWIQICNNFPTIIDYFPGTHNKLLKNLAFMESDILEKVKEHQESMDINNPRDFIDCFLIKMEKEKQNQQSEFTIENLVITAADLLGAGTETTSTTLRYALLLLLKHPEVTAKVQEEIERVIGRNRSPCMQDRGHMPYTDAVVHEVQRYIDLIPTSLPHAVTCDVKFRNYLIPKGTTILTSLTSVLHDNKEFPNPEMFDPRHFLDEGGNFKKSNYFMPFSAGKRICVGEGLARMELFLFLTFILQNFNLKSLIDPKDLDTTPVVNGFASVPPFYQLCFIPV
CYP2C9, sequence (P11712 whole entry): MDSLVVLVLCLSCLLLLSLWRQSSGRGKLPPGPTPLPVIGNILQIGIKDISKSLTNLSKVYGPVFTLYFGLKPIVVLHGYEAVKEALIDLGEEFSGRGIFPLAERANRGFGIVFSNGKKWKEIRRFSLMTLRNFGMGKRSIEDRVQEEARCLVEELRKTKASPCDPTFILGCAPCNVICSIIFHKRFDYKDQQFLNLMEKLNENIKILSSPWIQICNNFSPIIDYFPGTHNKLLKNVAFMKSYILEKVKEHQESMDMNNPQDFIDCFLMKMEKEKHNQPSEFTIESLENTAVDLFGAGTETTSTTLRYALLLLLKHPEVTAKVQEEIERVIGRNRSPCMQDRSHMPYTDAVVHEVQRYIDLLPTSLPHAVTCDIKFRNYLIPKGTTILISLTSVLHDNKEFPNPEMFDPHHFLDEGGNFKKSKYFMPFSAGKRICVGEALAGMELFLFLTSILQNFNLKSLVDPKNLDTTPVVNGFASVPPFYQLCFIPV
Mitogen-activated protein kinase 14, sequence (Q16539 whole entry): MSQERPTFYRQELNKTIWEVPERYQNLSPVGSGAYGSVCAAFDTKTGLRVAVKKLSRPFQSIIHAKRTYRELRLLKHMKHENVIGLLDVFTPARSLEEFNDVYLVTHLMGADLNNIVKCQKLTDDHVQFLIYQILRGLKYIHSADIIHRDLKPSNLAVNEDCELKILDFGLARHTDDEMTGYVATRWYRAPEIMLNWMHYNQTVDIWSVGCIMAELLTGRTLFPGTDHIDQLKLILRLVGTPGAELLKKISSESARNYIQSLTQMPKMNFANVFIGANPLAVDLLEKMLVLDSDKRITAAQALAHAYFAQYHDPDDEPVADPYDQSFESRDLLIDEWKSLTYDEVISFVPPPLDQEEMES
CYP3A4, sequence (P08684 whole entry): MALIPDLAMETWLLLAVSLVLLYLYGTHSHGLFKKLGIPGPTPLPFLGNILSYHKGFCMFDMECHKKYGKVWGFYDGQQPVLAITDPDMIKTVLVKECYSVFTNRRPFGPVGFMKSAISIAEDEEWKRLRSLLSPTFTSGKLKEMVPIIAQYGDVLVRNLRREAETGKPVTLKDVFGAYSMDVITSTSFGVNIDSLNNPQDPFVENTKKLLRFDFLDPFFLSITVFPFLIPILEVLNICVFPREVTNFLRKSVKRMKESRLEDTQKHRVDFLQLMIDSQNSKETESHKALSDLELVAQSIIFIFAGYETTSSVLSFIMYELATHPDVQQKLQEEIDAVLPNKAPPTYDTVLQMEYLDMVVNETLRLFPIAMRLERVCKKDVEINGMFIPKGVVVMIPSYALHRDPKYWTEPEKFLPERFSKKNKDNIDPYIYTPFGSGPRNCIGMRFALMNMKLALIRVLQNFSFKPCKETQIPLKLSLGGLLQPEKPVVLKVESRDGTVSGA
hERG, sequence (Q12809 whole entry): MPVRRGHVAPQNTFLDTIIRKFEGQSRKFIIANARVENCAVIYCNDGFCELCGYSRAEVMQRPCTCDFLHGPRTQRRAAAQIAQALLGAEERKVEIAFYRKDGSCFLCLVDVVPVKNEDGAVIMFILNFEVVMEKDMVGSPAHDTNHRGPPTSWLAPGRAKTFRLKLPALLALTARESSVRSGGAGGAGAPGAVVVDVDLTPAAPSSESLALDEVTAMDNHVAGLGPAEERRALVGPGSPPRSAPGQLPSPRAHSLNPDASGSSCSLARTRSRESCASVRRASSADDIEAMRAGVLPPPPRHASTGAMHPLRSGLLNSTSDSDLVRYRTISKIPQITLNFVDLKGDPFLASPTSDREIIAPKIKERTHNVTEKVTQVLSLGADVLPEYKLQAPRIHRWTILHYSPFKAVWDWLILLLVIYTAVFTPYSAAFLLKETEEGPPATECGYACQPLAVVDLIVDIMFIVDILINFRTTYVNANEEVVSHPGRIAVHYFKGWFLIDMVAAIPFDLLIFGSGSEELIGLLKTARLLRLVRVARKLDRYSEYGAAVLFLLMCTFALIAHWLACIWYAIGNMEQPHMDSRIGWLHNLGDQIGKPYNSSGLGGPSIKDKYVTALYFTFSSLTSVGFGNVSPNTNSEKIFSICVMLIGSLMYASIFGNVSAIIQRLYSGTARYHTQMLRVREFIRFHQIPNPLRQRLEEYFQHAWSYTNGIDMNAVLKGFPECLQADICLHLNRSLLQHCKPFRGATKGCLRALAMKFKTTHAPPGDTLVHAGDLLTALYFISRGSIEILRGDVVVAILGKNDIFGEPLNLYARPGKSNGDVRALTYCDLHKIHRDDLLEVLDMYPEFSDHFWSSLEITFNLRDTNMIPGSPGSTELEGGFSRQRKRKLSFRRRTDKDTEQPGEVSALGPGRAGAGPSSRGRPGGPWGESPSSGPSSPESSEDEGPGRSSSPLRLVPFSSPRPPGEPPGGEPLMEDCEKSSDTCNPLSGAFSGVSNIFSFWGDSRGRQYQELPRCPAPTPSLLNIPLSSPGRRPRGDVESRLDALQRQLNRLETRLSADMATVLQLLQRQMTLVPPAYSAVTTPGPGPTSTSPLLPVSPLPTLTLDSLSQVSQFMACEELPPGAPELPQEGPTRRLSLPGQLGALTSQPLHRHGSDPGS
CYP2D6, sequence (P10635 whole entry): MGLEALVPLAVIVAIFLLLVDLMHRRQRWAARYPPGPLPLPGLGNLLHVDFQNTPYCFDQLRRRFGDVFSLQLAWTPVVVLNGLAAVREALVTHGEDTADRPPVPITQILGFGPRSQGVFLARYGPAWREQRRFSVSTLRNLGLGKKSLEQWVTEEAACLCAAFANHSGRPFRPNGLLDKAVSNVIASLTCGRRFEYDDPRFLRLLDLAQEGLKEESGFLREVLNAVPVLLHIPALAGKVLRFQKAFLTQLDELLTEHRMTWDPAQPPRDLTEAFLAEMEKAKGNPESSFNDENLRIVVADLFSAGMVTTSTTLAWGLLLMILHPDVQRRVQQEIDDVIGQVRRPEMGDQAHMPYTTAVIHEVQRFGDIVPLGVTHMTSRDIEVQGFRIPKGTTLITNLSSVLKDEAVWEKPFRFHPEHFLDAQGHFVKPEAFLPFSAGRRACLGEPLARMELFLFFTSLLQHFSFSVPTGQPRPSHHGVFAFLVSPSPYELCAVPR

With `Nc1ccccc1Nc1ccc2c(c1)CCc1ccc(C(=O)NCCC(=O)O)cc1C2=O` the concentration at 2 h [1] was 590 nM, the Activity (Splenocyte [2]) was 138% and the Activity (Splenocyte [3]) was 118%. The inhibition at 10 µM (CYP2D6) was 11.4%, the IC50 [4] was 0.98 nM and the concentration at 4 h [5] was 330 nM. It also gave an inhibition at 10 µM (CYP2C9) of 13.1%, a concentration at 4 h [6] of 120 nM and a Kp at 2 h [7] of 4.7. The concentration at 4 h [8] was 540 nM, the inhibition at 10 µM (CYP3A4) was 4.1% and the Activity (Splenocyte [9]) was “Non-Toxic”. The remaining at 2 h [10] was 99%, the Activity (Blood [11]) was 5% and the inhibition at 10 µM (CYP1A2) was 28.1%. It also gave an Activity (Splenocyte [12]) of 29%, an inhibition at 10 µM (CYP2C19) of 21.8% and a viability at 24 h, 0.1 µM [13] of 66%. The concentration at 4 h [14] was 380 nM and the inhibition at 10 µM (hERG) was 22.5%.

`O=C(O)CCNC(=O)c1ccc2c(c1)C(=O)c1ccc(Nc3ccc(F)cc3F)cc1CC2` showed an inhibition at 10 µM (CYP2D6) of 3%, an IC50 [4] of 5.5 nM and an inhibition at 10 µM (CYP2C9) of 98.5%. The Kp at 2 h [15] was 1.25, the inhibition at 10 µM (CYP3A4) was 54.8% and the Activity (Splenocyte [9]) was “Non-Toxic”. For the same compound, the remaining at 2 h [10] was 97%, the Activity (Blood [11]) was 5% and the inhibition at 10 µM (CYP1A2) was 33.6%. The concentration at 2 h [16] was 103 ng/g, the inhibition at 10 µM (CYP2C19) was 100% and the viability at 24 h, 0.1 µM [13] was 66%. It also gave an inhibition at 10 µM (hERG) of 11.8%.

`CN1CCN(c2cc(-c3ccncc3)c(-c3ccc4ccccc4c3)nn2)CC1` [MW-150] showed a concentration at 24 h [17] of 390 ng/mL and a Ct [18] of 1030 nmol/kg.

With `CNC(=O)c1ccc2c(c1)C(=O)c1ccc(Nc3ccccc3N)cc1CC2` the concentration at 2 h [1] was 20 nM, the IC50 [4] was 5.7 nM and the Activity (Splenocyte [9]) was “Non-Toxic”. The remaining at 2 h [10] was 3%, the concentration at 2 h [19] was 20 nM and the viability at 24 h, 0.1 µM [13] was 66%.

`COC(=O)CCCNC(=O)c1ccc2c(c1)C(=O)c1ccc(Nc3ccc(F)cc3F)cc1CC2` gave an inhibition at 10 µM (CYP2D6) of 3%, an IC50 [4] of 3.4 nM and an inhibition at 10 µM (CYP2C9) of 68.4%. The IC50 (Blood [20]) was 64 nM, the Activity (Blood [21]) was 64% and the inhibition at 10 µM (CYP3A4) was 34.9%. The Activity (Splenocyte [9]) was “Non-Toxic”, the inhibition at 10 µM (CYP1A2) was 11.6% and the inhibition at 0.01 µM (Blood [22]) was 50%. The inhibition at 10 µM (CYP2C19) was 60.4%, the viability at 24 h, 0.1 µM [13] was 66% and the inhibition at 10 µM (hERG) was 49.7%.
